Like-named read-outs stand apart in the source and are kept apart here.
Legend:
Clone 20.2 = assay: ELISA antibody cross-reactivity, Clone 20.2; assay type: binding, mouse
Description: (§1) Cross-reactivity of three clones for LSD, nor-LSD and 2-oxo-3-hydroxy-LSD was determined using an ELISA technique. Microtiter plates were coated with 100 μl of 0.325 mg/ml LSD-BSA or 100 μl of 0.325 mg/ml 2-oxo-3-hydroxy-LSD-BSA for 1 hour at 37° C. and post-blocked with 200 μl of 1% BSA in PBS for 1 hour at room temperature. Plates were washed 3 times with 400 μl of PBS-0.1% TWEEN-20. Free LSD, nor-LSD and 2-oxo-3-hydroxy-LSD were diluted to 1000 ng/ml in PBS. Antibody was diluted 8,000 fold. Drug solutions, 200 μl of 1000 ng/ml, solutions were dispensed into the first column of an ELISA plate. The rest of the wells were filled with 100 μl of PBS. Serial dilutions of the drugs were prepared by taking 100 μl of the drug solution out of the first column and dispensing it into the second column of the plate. Contents of the wells were mixed thoroughly by pipetting the solution up and down 5 times. 100 μl out of the second column was dispensed into the third column and mixed as above. The process was repeated for all 12 columns of ELISA plates. 100 μl of solution out of the last wells was discarded. 100 μl of antibody diluted 8,000 fold was added to each well. Resulting concentrations of the drug were 500 ng/ml, 250 ng/ml, 125 ng/ml, 62.5 ng/ml, 31.2 ng/ml, 15.6 ng/ml, 7.81 ng/ml, 3.90 ng/ml, 1.95 ng/ml, 0.976 ng/ml, 0.488 ng/ml, 0.244 ng/ml. Final antibody dilution was 16,000 fold. Plates were incubated for 1 hour at 37° C. and washed 3 times with PBS-TWEEN-20. Rabbit anti-mouse HRP conjugated IgG was diluted 5,000 fold and 100 μl were added to ELISA plates. The plates were incubated for 1 hour at 37° C. and washed 3 times with PBS-TWEEN-20. 100 μl of K-BLUE substrate was dispensed into each well. Plates were incubated for 30 min at room temperature in the dark. The reaction was stopped with 100 μl of 2 M H3PO4, and absorbance was read at 450 nm.

Clone 1.1 = assay: ELISA antibody cross-reactivity, Clone 1.1; assay type: binding, mouse
Description: as §1

Clone 2.1 = assay: ELISA antibody cross-reactivity, Clone 2.1; assay type: binding, mouse
Description: as §1

[1] = cited from earlier work
[2] = test system: antibodies specific for LSD; details: EMIT (Syva Company) immunoassay; cited from earlier work
[3] = test system: antibodies specific for LSD; details: KIMS (Roche Diagnostics) immunoassay; cited from earlier work
[4] = test system: antibodies specific for LSD; details: CEDIA (Microgenics Corporation) immunoassay; cited from earlier work
[5] = Dilution 0.2 (free drug 0.244 ng/ml)
[6] = Dilution 0.5 (free drug 0.488 ng/ml)
[7] = Dilution 1.0 (free drug 0.976 ng/ml)
[8] = Dilution 2.0 (free drug 1.95 ng/ml)
[9] = Dilution 3.9 (free drug 3.90 ng/ml)
[10] = Dilution 7.8 (free drug 7.81 ng/ml)
[11] = Dilution 15.6 (free drug 15.6 ng/ml)
[12] = Dilution 31.3 (free drug 31.2 ng/ml)
[13] = Dilution 62.5 (free drug 62.5 ng/ml)
[14] = Dilution 125.0 (free drug 125 ng/ml)
[15] = Dilution 250.0 (free drug 250 ng/ml)
[16] = Dilution 500.0 (free drug 500 ng/ml)
[17] = based upon specificity to 2-oxo-3-hydroxy-LSD

`CCN(CC)C(=O)[C@@H]1C=C2c3cccc4[nH]cc(c34)C[C@H]2NC1` [nor-LSD, N-desmethyl-LSD] gave an A450 (Clone 20.2; [5]) of 0.908, an A450 (Clone 20.2; [6]) of 0.866 and an A450 (Clone 20.2; [7]) of 0.853. It also gave an A450 (Clone 20.2; [8]) of 0.799, an A450 (Clone 20.2; [9]) of 0.722 and an A450 (Clone 20.2; [10]) of 0.656. It also gave an A450 (Clone 20.2; [11]) of 0.584, an A450 (Clone 20.2; [12]) of 0.464 and an A450 (Clone 20.2; [13]) of 0.416. It also gave an A450 (Clone 20.2; [14]) of 0.292, an A450 (Clone 20.2; [15]) of 0.228 and an A450 (Clone 20.2; [16]) of 0.288. It also gave a Calculated percentage cross-reactivity (Clone 20.2; [17]) of 4.6%, a Calculated percentage cross-reactivity (Clone 20.2; based upon specificity to LSD) of 5.5% and an A450 (Clone 1.1; [5]) of 4.019. It also gave an A450 (Clone 1.1; [6]) of 4.074, an A450 (Clone 1.1; [7]) of 4.100 and an A450 (Clone 1.1; [8]) of 3.884. It also gave an A450 (Clone 1.1; [9]) of 4.035, an A450 (Clone 1.1; [10]) of 3.805 and an A450 (Clone 1.1; [11]) of 3.740. For the same compound, the A450 (Clone 1.1; [12]) was 3.735, the A450 (Clone 1.1; [13]) was 3.601 and the A450 (Clone 1.1; [14]) was 3.512. The A450 (Clone 1.1; [15]) was 3.340, the A450 (Clone 1.1; [16]) was 2.968 and the Calculated percentage cross-reactivity (Clone 1.1; [17]) was 1.9%. The Calculated percentage cross-reactivity (Clone 1.1; based upon specificity to LSD) was 2.6%, the A450 (Clone 2.1; [5]) was 0.900 and the A450 (Clone 2.1; [6]) was 0.859. For the same compound, the A450 (Clone 2.1; [7]) was 0.842, the A450 (Clone 2.1; [8]) was 0.792 and the A450 (Clone 2.1; [9]) was 0.786. For the same compound, the A450 (Clone 2.1; [10]) was 0.696, the A450 (Clone 2.1; [11]) was 0.648 and the A450 (Clone 2.1; [12]) was 0.504. For the same compound, the A450 (Clone 2.1; [13]) was 0.444, the A450 (Clone 2.1; [14]) was 0.384 and the A450 (Clone 2.1; [15]) was 0.318. For the same compound, the A450 (Clone 2.1; [16]) was 0.276, the Calculated percentage cross-reactivity (Clone 2.1; [17]) was 1.8% and the Calculated percentage cross-reactivity (Clone 2.1; based upon specificity to LSD) was 2.3%.

For `CCN(CC)C(=O)[C@@H]1C=C2c3cccc4[nH]cc(c34)C[C@H]2N(C)C1` [LSD, 9,10-didehydro-N,N-diethyl-6-methylergoline-8β-carboxamide], the A450 (Clone 20.2; [5]) was 0.833, the A450 (Clone 20.2; [6]) was 0.658 and the A450 (Clone 20.2; [7]) was 0.587. It also gave an A450 (Clone 20.2; [8]) of 0.328, an A450 (Clone 20.2; [9]) of 0.284 and an A450 (Clone 20.2; [10]) of 0.204. It also gave an A450 (Clone 20.2; [11]) of 0.160, an A450 (Clone 20.2; [12]) of 0.126 and an A450 (Clone 20.2; [13]) of 0.126. For the same compound, the A450 (Clone 20.2; [14]) was 0.124, the A450 (Clone 20.2; [15]) was 0.188 and the A450 (Clone 20.2; [16]) was 0.122. For the same compound, the Calculated percentage cross-reactivity (Clone 20.2; [17]) was 84.4%, the Calculated percentage cross-reactivity (Clone 20.2; based upon specificity to LSD) was 100.0% and the A450 (Clone 1.1; [5]) was 3.797. The A450 (Clone 1.1; [6]) was 4.085, the A450 (Clone 1.1; [7]) was 3.962 and the A450 (Clone 1.1; [8]) was 3.905. It also gave an A450 (Clone 1.1; [9]) of 3.951, an A450 (Clone 1.1; [10]) of 3.831 and an A450 (Clone 1.1; [11]) of 3.519. For the same compound, the A450 (Clone 1.1; [12]) was 3.390, the A450 (Clone 1.1; [13]) was 2.633 and the A450 (Clone 1.1; [14]) was 2.050. The A450 (Clone 1.1; [15]) was 1.433, the A450 (Clone 1.1; [16]) was 0.831 and the Calculated percentage cross-reactivity (Clone 1.1; [17]) was 74.9%. It also gave a Calculated percentage cross-reactivity (Clone 1.1; based upon specificity to LSD) of 100.0%, an A450 (Clone 2.1; [5]) of 0.831 and an A450 (Clone 2.1; [6]) of 0.738. The A450 (Clone 2.1; [7]) was 0.579, the A450 (Clone 2.1; [8]) was 0.523 and the A450 (Clone 2.1; [9]) was 0.435. It also gave an A450 (Clone 2.1; [10]) of 0.339, an A450 (Clone 2.1; [11]) of 0.303 and an A450 (Clone 2.1; [12]) of 0.294. It also gave an A450 (Clone 2.1; [13]) of 0.252, an A450 (Clone 2.1; [14]) of 0.240 and an A450 (Clone 2.1; [15]) of 0.234. For the same compound, the A450 (Clone 2.1; [16]) was 0.236, the Calculated percentage cross-reactivity (Clone 2.1; [17]) was 76.1% and the Calculated percentage cross-reactivity (Clone 2.1; based upon specificity to LSD) was 100.0%. For the same compound, the “parent drug excreted in human urine” value ([1]; human urine) was “about 1%”.

For `CCN(CC)C(=O)[C@@H]1C=C2c3cccc4c3C(O)(C[C@H]2N(C)C1)C(=O)N4` (stereo partly drawn) [2-oxo-3-hydroxy-LSD, 2-oxo-3-hydroxy-d-lysergic acid diethylamide], the cross-reactivity [2] is given as 1.7%, the A450 (Clone 20.2; [5]) is given as 0.838 and the A450 (Clone 20.2; [6]) is given as 0.704. The A450 (Clone 20.2; [7]) was 0.430, the A450 (Clone 20.2; [8]) was 0.372 and the A450 (Clone 20.2; [9]) was 0.316. For the same compound, the A450 (Clone 20.2; [10]) was 0.272, the A450 (Clone 20.2; [11]) was 0.220 and the A450 (Clone 20.2; [12]) was 0.148. For the same compound, the A450 (Clone 20.2; [13]) was 0.142, the A450 (Clone 20.2; [14]) was 0.143 and the A450 (Clone 20.2; [15]) was 0.144. For the same compound, the A450 (Clone 20.2; [16]) was 0.142, the Calculated percentage cross-reactivity (Clone 20.2; [17]) was 100.0% and the Calculated percentage cross-reactivity (Clone 20.2; based upon specificity to LSD) was 118.5%. The A450 (Clone 1.1; [5]) was 3.913, the A450 (Clone 1.1; [6]) was 3.928 and the A450 (Clone 1.1; [7]) was 4.033. It also gave an A450 (Clone 1.1; [8]) of 4.015, an A450 (Clone 1.1; [9]) of 3.908 and an A450 (Clone 1.1; [10]) of 3.914. The A450 (Clone 1.1; [11]) was 3.310, the A450 (Clone 1.1; [12]) was 3.108 and the A450 (Clone 1.1; [13]) was 2.278. For the same compound, the A450 (Clone 1.1; [14]) was 1.768, the A450 (Clone 1.1; [15]) was 1.425 and the A450 (Clone 1.1; [16]) was 0.871. It also gave a Calculated percentage cross-reactivity (Clone 1.1; [17]) of 100.0%, a Calculated percentage cross-reactivity (Clone 1.1; based upon specificity to LSD) of 133.6% and an A450 (Clone 2.1; [5]) of 0.846. For the same compound, the A450 (Clone 2.1; [6]) was 0.690, the A450 (Clone 2.1; [7]) was 0.552 and the A450 (Clone 2.1; [8]) was 0.531. The A450 (Clone 2.1; [9]) was 0.372, the A450 (Clone 2.1; [10]) was 0.321 and the A450 (Clone 2.1; [11]) was 0.294. It also gave an A450 (Clone 2.1; [12]) of 0.309, an A450 (Clone 2.1; [13]) of 0.243 and an A450 (Clone 2.1; [14]) of 0.256. It also gave an A450 (Clone 2.1; [15]) of 0.297, an A450 (Clone 2.1; [16]) of 0.243 and a Calculated percentage cross-reactivity (Clone 2.1; [17]) of 100.0%. The Calculated percentage cross-reactivity (Clone 2.1; based upon specificity to LSD) was 131.4%, the cross-reactivity [3] was 11% and the “time detectable after ingestion of the drug” value ([1]; urine, compared with LSD) was “can be detected for a longer time than LSD”. For the same compound, the cross-reactivity [4] was 1.8%.

Source: patent US20070122859A1, “Immunoassay for LSD and 2-oxo-3-hydroxy-LSD” (priority 2000, published 2007)
